Assay [1] has as its target Phospholipase A2, major isoenzyme (Sus scrofa) (UniProt P00592). As to the kind of experiment: Pre-steady-state inhibition constant against phospholipase A2. As to conditions: naja mocambique mocambique.
Assay [2] has the same target. As to the kind of experiment: k_2 value calculated from 1/Ki=(1/Ks)(k2/k_2). As to conditions: naja mocambique mocambique.

SMILES strings stand for the structures.

These results are taken from ChEMBL document CHEMBL1149216, “Benzene-di-N-octylcarbamates as conformationally constrained phospholipase A(2) inhibitors” (Bioorg Med Chem Lett, 2004).

Phospholipase A2, major isoenzyme (Sus scrofa), sequence (P00592 23-146 limits assumed): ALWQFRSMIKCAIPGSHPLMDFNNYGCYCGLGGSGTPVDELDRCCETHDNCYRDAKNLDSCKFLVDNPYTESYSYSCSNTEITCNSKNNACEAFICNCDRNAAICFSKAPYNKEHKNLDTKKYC

For the compound `CCCCCCCCNC(=O)Oc1ccc(OC(=O)NCCCCCCCC)cc1`, in assay [1], the K2 came out at 0.21 s⁻¹ and the Ks was 21 µM. Moreover, in assay [2], the k 2 was 0.15 s⁻¹.
For the compound `CCCCCCCCNC(=O)Oc1cccc(OC(=O)NCCCCCCCC)c1`, in assay [1], the K2 was 0.13 s⁻¹ and the Ks amounted to 16 µM. Also, the k 2 in assay [2] is 0.033 s⁻¹.
As to `CCCCCCCCNC(=O)Oc1ccccc1OC(=O)NCCCCCCCC`, in assay [1], the K2 was found to be 0.17 s⁻¹ and the Ks was 68 µM. The k 2 in assay [2] is 0.028 s⁻¹.
